Test results taken from ChEMBL document CHEMBL1140239, “Novel phomactin analogues as PAF receptor ligands” (Bioorg Med Chem Lett, 2005).

Each compound was assayed against Platelet-activating factor receptor (Homo sapiens, UniProt P25105) (assay: Inhibition of [3H]PAF binding to platelet activating factor receptor in human platelet).
Sequence of Platelet-activating factor receptor (P25105 whole entry): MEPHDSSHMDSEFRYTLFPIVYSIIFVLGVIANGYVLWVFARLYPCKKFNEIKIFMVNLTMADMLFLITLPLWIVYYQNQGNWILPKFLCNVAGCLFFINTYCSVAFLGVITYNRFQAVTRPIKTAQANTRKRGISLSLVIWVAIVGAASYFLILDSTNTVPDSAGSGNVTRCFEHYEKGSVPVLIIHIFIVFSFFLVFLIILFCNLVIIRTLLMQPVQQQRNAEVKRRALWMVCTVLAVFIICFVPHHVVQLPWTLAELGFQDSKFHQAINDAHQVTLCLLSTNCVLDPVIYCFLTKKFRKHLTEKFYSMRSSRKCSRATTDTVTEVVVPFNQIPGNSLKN

Compound | IC50
C/C1=C\CC[C@]2(C)O[C@@H]3C[C@@H](C)[C@](C)(CC1)[C@]14CO[C@](O)([C@H]2O)[C@]31O4 | 2340 nM
C/C1=C\CC[C@@]2(C)O[C@@H]2[C@@]2(O)OCC3=C2[C@@H](O)C[C@@H](C)[C@]3(C)CC1 | 1450 nM
C/C1=C\CC[C@]2(C)O[C@H]2[C@@]2(O)OCC3=C2[C@H](O)C[C@@H](C)[C@]3(C)CC1 | 1120 nM

Further compounds by falling IC50, results first:

IC50 | Compound
1260 nM | C/C1=C\CC[C@]2(C)O[C@@H]3C[C@@H](C)C(C)(CC1)C1=C3[C@](O)(OC1)[C@H]2O (single isomer, unassigned)
1150 nM | C/C1=C\[C@@]2(O)OC[C@]34O[C@]23CC[C@@H](C)C4(C)CC/C(C)=C/CC1 (single isomer, unassigned)
575 nM | C/C1=C\CC[C@]2(C)O[C@H]2[C@@]2(O)OCC3=C2CC[C@@H](C)[C@]3(C)CC1
575 nM | C/C1=C\CC[C@@]2(C)O[C@@H]2[C@@]2(O)OCC3=C2CC[C@@H](C)[C@]3(C)CC1
